Experimental data published in ChEMBL document CHEMBL1955827, “Influence of ring size on the cognition-enhancing activity of DM235 and MN19, two potent nootropic drugs” (Bioorg Med Chem Lett, 2012).
The source made the active and inactive calls. The rule behind the calls is not given here.

Assays:
Mus musculus [1] = assay: Nootropic activity against scopolamine-induced amnesia in mouse assessed as increase in latency time to enter dark room at 0.1 mg/kg, ip administered 20 mins prior to test by passive avoidance test (reference value: 91.7 sec); format: functional; details: route intraperitoneal
Mus musculus [2] = assay: Neurotoxicity in mouse assessed as effect on motor coordination at 0.1 mg/kg, ip by rotarod test; format: toxicity, organism-based; parameters: dose 0.1 mg/kg, route intraperitoneal; details: in vivo
Mus musculus [3] = assay: Neurotoxicity in mouse assessed as effect on spontaneous motility at 0.1 mg/kg, ip by hole-board test; format: toxicity, organism-based; parameters: dose 0.1 mg/kg, route intraperitoneal; details: in vivo
Mus musculus [4] = assay: Neurotoxicity in mouse assessed as effect on gross behavior at 0.1 mg/kg, ip by rota-rod test; format: toxicity, organism-based; parameters: dose 0.1 mg/kg, route intraperitoneal; details: in vivo
Mus musculus [5] = assay: Neurotoxicity in mouse assessed as effect on inspection activity at 0.1 mg/kg, ip by hole-board test; format: toxicity, organism-based; parameters: dose 0.1 mg/kg, route intraperitoneal; details: in vivo
Mus musculus [6] = assay: Nootropic activity against scopolamine-induced amnesia in mouse assessed as increase in latency period to enter dark room up to 10 mg/kg, ip administered 20 mins prior to test by passive avoidance test (reference value: 91.7 sec); format: functional, organism-based; parameters: dose 10 mg/kg
Mus musculus [7] = assay: Nootropic activity against scopolamine-induced amnesia in mouse assessed as increase in latency time to enter dark room at 10 mg/kg, ip administered 20 mins prior to test by passive avoidance test (reference value: 91.7 sec); format: functional; details: route intraperitoneal
Mus musculus [8] = assay: Neurotoxicity in mouse assessed as effect on motor coordination at 10 mg/kg, ip by rotarod test; format: toxicity, organism-based; parameters: dose 10 mg/kg, route intraperitoneal; details: in vivo
Mus musculus [9] = assay: Neurotoxicity in mouse assessed as effect on spontaneous motility at 10 mg/kg, ip by hole-board test; format: toxicity, organism-based; parameters: dose 10 mg/kg, route intraperitoneal; details: in vivo
Mus musculus [10] = assay: Neurotoxicity in mouse assessed as effect on gross behaviour at 10 mg/kg, ip by rotarod test; format: toxicity, organism-based; parameters: dose 10 mg/kg, route intraperitoneal; details: in vivo
Mus musculus [11] = assay: Neurotoxicity in mouse assessed as effect on inspection activity at 10 mg/kg, ip by hole-board test; format: toxicity, organism-based; parameters: dose 10 mg/kg, route intraperitoneal; details: in vivo
Mus musculus [12] = assay: Nootropic activity against scopolamine-induced amnesia in mouse assessed as increase in latency time to enter dark room at 1 mg/kg, ip administered 20 mins prior to test by passive avoidance test (reference value: 91.7 sec); format: functional; details: route intraperitoneal
Mus musculus [13] = assay: Neurotoxicity in mouse assessed as effect on motor coordination at 1 mg/kg, ip by rotarod test; format: toxicity, organism-based; parameters: dose 1 mg/kg, route intraperitoneal; details: in vivo
Mus musculus [14] = assay: Neurotoxicity in mouse assessed as effect on spontaneous motility at 1 mg/kg, ip by hole-board test; format: toxicity, organism-based; parameters: dose 1 mg/kg, route intraperitoneal; details: in vivo
Mus musculus [15] = assay: Neurotoxicity in mouse assessed as effect on gross behavior at 1 mg/kg, ip by rota-rod test; format: toxicity, organism-based; parameters: dose 1 mg/kg, route intraperitoneal; details: in vivo
Mus musculus [16] = assay: Neurotoxicity in mouse assessed as effect on inspection activity at 1 mg/kg, ip by hole-board test; format: toxicity, organism-based; parameters: dose 1 mg/kg, route intraperitoneal; details: in vivo
Mus musculus [17] = assay: Nootropic activity against scopolamine-induced amnesia in mouse assessed as increase in latency time to enter dark room at 0.001 mg/kg, ip administered 20 mins prior to test by passive avoidance test (reference value: 91.7 sec); format: functional; details: route intraperitoneal
Mus musculus [18] = assay: Neurotoxicity in mouse assessed as effect on motor coordination at 0.001 mg/kg, ip by rotarod test; format: toxicity, organism-based; parameters: dose 0.001 mg/kg, route intraperitoneal; details: in vivo
Mus musculus [19] = assay: Neurotoxicity in mouse assessed as effect on spontaneous motility at 0.001 mg/kg, ip by hole-board test; format: toxicity, organism-based; parameters: dose 0.001 mg/kg, route intraperitoneal; details: in vivo
Mus musculus [20] = assay: Neurotoxicity in mouse assessed as effect on gross behaviour at 0.001 mg/kg, ip by rotarod test; format: toxicity, organism-based; parameters: dose 0.001 mg/kg, route intraperitoneal; details: in vivo
Mus musculus [21] = assay: Neurotoxicity in mouse assessed as effect on inspection activity at 0.001 mg/kg, ip by hole-board test; format: toxicity, organism-based; parameters: dose 0.001 mg/kg, route intraperitoneal; details: in vivo
Mus musculus [22] = assay: Neurotoxicity in mouse assessed as effect on motor coordination at 30 mg/kg, ip by rotarod test; format: toxicity, organism-based; parameters: dose 30 mg/kg, route intraperitoneal; details: in vivo
Mus musculus [23] = assay: Neurotoxicity in mouse assessed as effect on spontaneous motility at 30 mg/kg, ip by hole-board test; format: toxicity, organism-based; parameters: dose 30 mg/kg, route intraperitoneal; details: in vivo
Mus musculus [24] = assay: Neurotoxicity in mouse assessed as effect on gross behavior at 30 mg/kg, ip by rota-rod test; format: toxicity, organism-based; parameters: dose 30 mg/kg, route intraperitoneal; details: in vivo
Mus musculus [25] = assay: Neurotoxicity in mouse assessed as effect on inspection activity at 30 mg/kg, ip by hole-board test; format: toxicity, organism-based; parameters: dose 30 mg/kg, route intraperitoneal; details: in vivo
Mus musculus [26] = assay: Nootropic activity against scopolamine-induced amnesia in mouse assessed as increase in latency time to enter dark room at 0.01 mg/kg, ip administered 20 mins prior to test by passive avoidance test (reference value: 91.7 sec); format: functional; details: route intraperitoneal
Mus musculus [27] = assay: Neurotoxicity in mouse assessed as effect on motor coordination at 0.01 mg/kg, ip by rotarod test; format: toxicity, organism-based; parameters: dose 0.01 mg/kg, route intraperitoneal; details: in vivo
Mus musculus [28] = assay: Neurotoxicity in mouse assessed as effect on spontaneous motility at 0.01 mg/kg, ip by hole-board test; format: toxicity, organism-based; parameters: dose 0.01 mg/kg, route intraperitoneal; details: in vivo
Mus musculus [29] = assay: Neurotoxicity in mouse assessed as effect on gross behavior at 0.01 mg/kg, ip by rota-rod test; format: toxicity, organism-based; parameters: dose 0.01 mg/kg, route intraperitoneal; details: in vivo
Mus musculus [30] = assay: Neurotoxicity in mouse assessed as effect on inspection activity at 0.01 mg/kg, ip by hole-board test; format: toxicity, organism-based; parameters: dose 0.01 mg/kg, route intraperitoneal; details: in vivo

CCC(=O)NC1CCN(S(=O)(=O)c2ccc(F)cc2)C1 (stereo not drawn)
Time (Mus musculus [1]): 48.8 s
Activity (Mus musculus [2]): Non-toxic
Activity (Mus musculus [3]): Non-toxic
Activity (Mus musculus [4]): Non-toxic
Activity (Mus musculus [5]): Non-toxic

CC(=O)NC1CCCN(C(=O)c2ccccc2)CC1 (stereo not drawn)
Activity (Mus musculus [6]): inactive

CCC(=O)NC1CCCN(S(=O)(=O)c2ccc(F)cc2)CC1 (stereo not drawn)
Time (Mus musculus [7]): 46.8 s
Activity (Mus musculus [8]): Non-toxic
Activity (Mus musculus [9]): Non-toxic
Activity (Mus musculus [10]): Non-toxic
Activity (Mus musculus [11]): Non-toxic

CC(=O)N1CCC(NC(=O)c2ccccc2)C1 (stereo not drawn)
Time (Mus musculus [12]): 48.1 s
Activity (Mus musculus [13]): Non-toxic
Activity (Mus musculus [14]): Non-toxic
Activity (Mus musculus [15]): Non-toxic
Activity (Mus musculus [16]): Non-toxic

CC(=O)N1CCCC(NS(=O)(=O)c2ccc(F)cc2)CC1 (stereo not drawn)
Time (Mus musculus [12]): 45.8 s
Activity (Mus musculus [13]): Non-toxic
Activity (Mus musculus [14]): Non-toxic
Activity (Mus musculus [15]): Non-toxic
Activity (Mus musculus [16]): Non-toxic

CCC(=O)N1CCN(C(=O)c2ccccc2)CC1 [SUNIFIRAM]
Time (Mus musculus [17]): 71 s
Activity (Mus musculus [18]): Non-toxic
Activity (Mus musculus [19]): Non-toxic
Activity (Mus musculus [20]): Non-toxic
Activity (Mus musculus [21]): Non-toxic

CCC(=O)N1CCCN(C(=O)c2ccccc2)CCC1
Activity (Mus musculus [6]): inactive

CCC(=O)N1CCCC(NC(=O)c2ccccc2)CC1 (stereo not drawn)
Time (Mus musculus [12]): 69.4 s
Activity (Mus musculus [13]): Non-toxic
Activity (Mus musculus [14]): Non-toxic
Activity (Mus musculus [15]): Non-toxic
Activity (Mus musculus [16]): Non-toxic

CC(=O)N1CCC(NS(=O)(=O)c2ccc(F)cc2)C1 (stereo not drawn)
Activity (Mus musculus [6]): inactive

NC(=O)CN1CCCC1=O [PIRACETAM]
Activity (Mus musculus [22]): Non-toxic
Activity (Mus musculus [23]): Non-toxic
Activity (Mus musculus [24]): Non-toxic
Activity (Mus musculus [25]): Non-toxic

CCC(=O)N[C@@H]1CCN(S(=O)(=O)c2ccc(F)cc2)C1
Time (Mus musculus [7]): 69.4 s
Activity (Mus musculus [8]): Non-toxic
Activity (Mus musculus [9]): Non-toxic
Activity (Mus musculus [10]): Non-toxic
Activity (Mus musculus [11]): Non-toxic

CCC(=O)N1CCC(NS(=O)(=O)c2ccc(F)cc2)C1 (stereo not drawn)
Activity (Mus musculus [6]): inactive

CCC(=O)NC1CCCN(C(=O)c2ccccc2)CCC1
Activity (Mus musculus [6]): inactive

CC(=O)NC1CCN(C(=O)c2ccccc2)C1 (stereo not drawn)
Time (Mus musculus [7]): 70.3 s
Activity (Mus musculus [8]): Non-toxic
Activity (Mus musculus [9]): Non-toxic
Activity (Mus musculus [10]): Non-toxic
Activity (Mus musculus [11]): Non-toxic

CCC(=O)N1CCC(NC(=O)c2ccccc2)C1 (stereo not drawn)
Activity (Mus musculus [6]): inactive

CC(=O)NC1CCN(S(=O)(=O)c2ccc(F)cc2)C1 (stereo not drawn)
Time (Mus musculus [12]): 51 s
Activity (Mus musculus [13]): Non-toxic
Activity (Mus musculus [14]): Non-toxic
Activity (Mus musculus [15]): Non-toxic
Activity (Mus musculus [16]): Non-toxic

CCC(=O)N1CCCN(S(=O)(=O)c2ccc(F)cc2)CCC1
Activity (Mus musculus [6]): inactive

CC(=O)N1CCCC(NC(=O)c2ccccc2)CC1 (stereo not drawn)
Time (Mus musculus [12]): 70.4 s
Activity (Mus musculus [13]): Non-toxic
Activity (Mus musculus [14]): Non-toxic
Activity (Mus musculus [15]): Non-toxic
Activity (Mus musculus [16]): Non-toxic

CC(=O)NC1CCCN(C(=O)c2ccccc2)CCC1
Activity (Mus musculus [6]): inactive

CC(=O)NC1CCCN(S(=O)(=O)c2ccc(F)cc2)CCC1
Time (Mus musculus [12]): 44.8 s
Activity (Mus musculus [13]): Non-toxic
Activity (Mus musculus [14]): Non-toxic
Activity (Mus musculus [15]): Non-toxic
Activity (Mus musculus [16]): Non-toxic

CCC(=O)NC1CN(S(=O)(=O)c2ccc(F)cc2)C1
Time (Mus musculus [7]): 44.1 s
Activity (Mus musculus [8]): Non-toxic
Activity (Mus musculus [9]): Non-toxic
Activity (Mus musculus [10]): Non-toxic
Activity (Mus musculus [11]): Non-toxic

CCC(=O)NC1CCCN(S(=O)(=O)c2ccc(F)cc2)CCC1
Time (Mus musculus [7]): 72.2 s
Activity (Mus musculus [8]): Non-toxic
Activity (Mus musculus [9]): Non-toxic
Activity (Mus musculus [10]): Non-toxic
Activity (Mus musculus [11]): Non-toxic

CCC(=O)N1CCCC(NS(=O)(=O)c2ccc(F)cc2)CC1 (stereo not drawn)
Time (Mus musculus [7]): 81.4 s

CCC(=O)N[C@H]1CCN(S(=O)(=O)c2ccc(F)cc2)C1
Time (Mus musculus [12]): 56.6 s
Activity (Mus musculus [13]): Non-toxic
Activity (Mus musculus [14]): Non-toxic
Activity (Mus musculus [15]): Non-toxic
Activity (Mus musculus [16]): Non-toxic

CCC(=O)NC1CN(C(=O)c2ccccc2)C1
Activity (Mus musculus [6]): inactive

CC(=O)NC1CCN(S(=O)(=O)c2ccc(F)cc2)CC1 [SAPUNIFIRAM]
Time (Mus musculus [26]): 76.1 s
Activity (Mus musculus [27]): Non-toxic
Activity (Mus musculus [28]): Non-toxic
Activity (Mus musculus [29]): Non-toxic
Activity (Mus musculus [30]): Non-toxic

CC(=O)NC1CCCN(S(=O)(=O)c2ccc(F)cc2)CC1 (stereo not drawn)
Activity (Mus musculus [6]): inactive
Time (Mus musculus [12]): 62.7 s

CC(=O)N1CCCN(C(=O)c2ccccc2)CCC1
Activity (Mus musculus [6]): inactive

CCC(=O)NC1CCN(C(=O)c2ccccc2)C1 (stereo not drawn)
Time (Mus musculus [12]): 45.4 s
Activity (Mus musculus [13]): Non-toxic
Activity (Mus musculus [14]): Non-toxic
Activity (Mus musculus [15]): Non-toxic
Activity (Mus musculus [16]): Non-toxic

CCC(=O)NC1CCCN(C(=O)c2ccccc2)CC1 (stereo not drawn)
Time (Mus musculus [12]): 62.7 s
Activity (Mus musculus [13]): Non-toxic
Activity (Mus musculus [14]): Non-toxic
Activity (Mus musculus [15]): Non-toxic
Activity (Mus musculus [16]): Non-toxic

CC(=O)N1CCCN(S(=O)(=O)c2ccc(F)cc2)CCC1
Activity (Mus musculus [6]): inactive
